Results: patent publication US20110028383A1, “Activated Forms Of Notch And Methods Based Thereon” (priority 1997, published 2011)
“Also recorded” adds a separate entry of the source.

Tests used:
[1] = tested on: Drosophila Notch N^EC/N^TM heterodimer; assay: Tethering of N^EC to N^TM in Notch expressing S2 cells (supernatant Western blot, sucrose density centrifugation); type: cell-based; details: for dissociation of N^EC and N^TM: calcium ion chelators
Method: Briefly, Drosophila S2 cells were induced to express Notch with the addition of 0.7 mM CuSO4 for 16 hours; Notch expression was under the control of the metallothionien promoter (Fehon et al., 1990, Cell 61:523-534). The cells were washed once with 20 mM Tris-HCl, 150 mM NaCl, 2 mM CaCl2 (TBS/Ca^2+) and were resuspended in TBS/Ca^2+ or in 20 mM Tris-HCl, 150 mM NaCl. 2 mM EDTA (TBS/EDTA) and incubated for one hour at room temperature under slow rocking. The cells were centrifuged and pelleted and the supernatants were collected for SDS-PAGE and Western blot analysis. The blot was probed with a monoclonal antibody directed to the extracellular domain of Notch, specifically against EGF-like repeats 5-7 of Drosophila Notch (clone C461.3B). This monoclonal was detected using goat anti-mouse horseradish peroxidase secondary antibody and chemiluminescent substrate.
The extracts were sedimented through a 5-20% sucrose gradient in the above-respective buffers (without the protease inhibitors) in a Beckman SW50.1 rotor at 34,000 rpm for 16 hours at 4° C. Fractions were collected and precipitated with 10% trichloroacetic acid. The protein pellets were resuspended in SDS-PAGE sample buffer and analyzed by SDS-PAGE and Western blotting. Blots were probed with a mixture of monoclonal antibodies C461.3B and 9C6 (directed against the intracellular domain of Notch) and detected as described above.

Notch/Delta = assay: Co-immunoprecipitation of N^TM with Delta antibodies after Notch/Delta cell aggregation; type: cell-based, Drosophila; details: aggregation disrupted by depleting calcium from the medium; data not shown
Method: Human neuroblastoma (SJ-NB5) cells were grown at 37° C. in an atmosphere of 5% CO2/95% air, in RPMI (Gibco-BRL, Grand Island, N.Y.) supplemented with 10% fetal bovine serum (Gibco BRL, Grand Island, N.Y.), 2 mM L-Glutamine (ICN Biomedicals, Inc., Costa Mesa, Calif.), 100 μg/ml penicillin, and 100 μg/ml streptomycin (ICN Biomedicals, Inc., Costa Mesa, Calif.). Cells were dissociated using phosphate buffered saline (PBS) with 0.25% trypsin and 0.03% EDTA (J. T. Baker, Inc., Phillipsburg, N.J.), and subcultured at ratios of 1:3 to 1:10. HaCat Cells (cultured human keratinocytes) were a gift from Dr. Michael Reiss (Yale University). Aggregation experiments and the maintenance of Drosophila S2 and KC cells were as described in Fehon et al., 1990, Cell 61:523-534.
The biological significance of the heterodimeric Notch form would be questionable if it could not bind ligands. […] If the heterodimeric form interacts with Delta after aggregation then the 110 kd N^TM fragment should co-immunoprecipitate using Delta antibodies.

human Notch2 = assay: Pulse chase labeling of Notch2 processing in SJ-NB5 cells; type: cell-based; details: for breakdown (cleavage, processing) of full-length Notch: [35S] pulse 20 min and chase at 37° C., immunoprecipitated by PGHN, Brefeldin A 10 μg/ml; for appearance of N^EC: pulse labeling
Method: SJ-NB5 cells were grown on 60 mm petri dishes until ˜80% confluent, washed once with PBS, and then incubated in methionine and cysteine free DMEM medium for 1 hr. 100 μCi^35S-translabled Met-Cys (ICN) was added to each plate, pulsed at 37° C. for 20 minutes, and chased for varying times and temperatures. The chase began by adding 2× volume complete medium plus 100 μg/ml cold methionine and cysteine to the plates. For Brefeldin A samples, Brefeldin A was maintained at a final concentration of 10 μg/ml in starvation medium as well as in both pulse and chase. Cells were washed with cold PBS and lysed in lysis buffer (Zagouras et al., 1995, Proc. Natl. Acad. Sci. USA 92:6414-6418) containing 1 mM Pefabloc SC, 0.7 μg/mlpepstatin A, and 0.5 μg/ml leupeptin. Cell lysates were centrifuged at 14,000 rpm for 5 minutes. The supernatants were transferred to fresh tubes and pre-cleared by incubating with 5 μl normal rabbit serum and 50 μl 10% protein A-sephrose CL-4B (Pharmacia LKB) for 1 hr at 4° C. The beads were pelleted by centrifugation and the supernatants were divided into two equal aliquots. One aliquot was immunoprecipitated by incubating with rabbit polyclonal anti-human Notch2 antibody PGHN and 50 μl protein A-sephrose CL-4B for 2-3 hrs or overnight at 4° C. The other aliquot was immunoprecipitated by normal rabbit serum as control. The beads were washed three times in RIPA buffer B (150 mM NaCl, 1% NP40, 0.5% DOC, 0.1% SDS, 50 mM Tris, pH 7.5); washed once in 50 mM Tris-Cl, 150 mM NaCl, pH 7.5; resuspended in 50 μl SDS-sample buffer; boiled; and subjected to a 3-15% gradient SDS-PAGE. The gel was fixed in 25% iso-propanol, 10% acetic acid for 30 minutes, soaked in Amplify™ (Amersham) for 15-30 minutes, dried, and exposed to X-ray film at −70° C.
In an attempt to determine the cellular compartment where Notch is cleaved, pulse labeling analyses were carried out in the presence of drugs that are known to interfere with cellular trafficking.

## O[C@H](CS)[C@H](O)CS (racemic) [dithiothreitol (DTT), dithiothreitol]
[1]
  sensitivity of the N^EC/N^TM interaction to reducing agents: sensitive

## O=C(O)CN(CCOCCOCCN(CC(=O)O)CC(=O)O)CC(=O)O [EGTA]
Notch/Delta
  precipitation of N^TM by Delta antibodies: fail to efficiently precipitate N^TM
[1]
  dissociation of N^EC and N^TM: dissociate

## O=C(O)CN(CCN(CC(=O)O)CC(=O)O)CC(=O)O [EDTA]
[1]; 2 mM EDTA, Tris-HCl saline buffer, one hour at room temperature, Western blot
  N^EC in the supernatant of Notch expressing S2 cells: N^EC is present in the supernatant
[1]; S2 cell extracts, TBS/EDTA with 1% Triton X-100, 5-20% sucrose gradient
  sedimentation of N^EC and N^TM in sucrose density centrifugation: sediment separately
[1]
  dissociation of N^EC and N^TM: dissociate

## CC[C@@]1([C@@H]2O[C@@H]([C@H]3O[C@@](O)(CO)[C@H](C)C[C@@H]3C)C[C@@H]2C)CC[C@H]([C@]2(C)CC[C@]3(C[C@H](O)[C@@H](C)[C@@H]([C@@H](C)[C@@H](OC)[C@H](C)C(=O)O)O3)O2)O1 [monensin]
Human Notch2
  breakdown (cleavage, processing) of full-length Notch: do not affect processing
  appearance of N^EC: not inhibited

## CCN(CC)CCCC(C)Nc1ccnc2cc(Cl)ccc12 (stereo not shown) [chloraquinone]
Human Notch2
  breakdown (cleavage, processing) of full-length Notch: do not affect processing
  appearance of N^EC: not inhibited

## OCCS [β-mercaptoethanol]
[1]
  sensitivity of the N^EC/N^TM interaction to reducing agents: sensitive

## C[C@H]1CCC/C=C/[C@@H]2C[C@H](O)C[C@H]2[C@H](O)/C=C/C(=O)O1 [Brefeldin A]
Human Notch2
  breakdown (cleavage, processing) of full-length Notch: effectively blocks the breakdown of full-length Notch; also recorded: blocked; also recorded: inhibit the cleavage of Notch
  appearance of N^EC: is inhibited
